Laboratory results: patent US11346839B2, “Method for determining the interaction between a ligand and a receptor” (INSINGULO AB, priority 2018, dated 2022)
Where two headings read alike, the source gives them in different places.

Biological target: human-thrombin (Homo sapiens, UniProt P00734)
Conditions: Example 2, thrombin 1 pM
Experimental: To yield liposomes with a diameter of ˜100 nm first the required lipids were solved in chloroform and mixed. In total 5 mg 2-Oleoyl-1-palmitoyl-sn-glycero-3-phosphocholine, 0.01 mg, 1,2-dioleoyl-sn-glycero-3-phosphoethanolamine-N-dibenzocyclooctyl and 0.005 mg 1,2-dipalmitoyl-sn-glycero-3-phosphoethanolamine-N-(lissamine rhodamine B sulfonyl) were mixed together. The lipid mixture was vacuum dried overnight. The dried lipids were hydrated in 1 ml HBS (150 mM NaCl, 20 mM/L HEPES at pH7.2) under gentle agitation. The lipid suspension was extruded through a PC-membrane with 100 nm pore size eleven times. Concentration of the liposomes was determined by light absorption at 544 nm and the concentration of the liposome solution was adjusted to 2.5 mg/ml. This equals a liposome concentration of approximately 30 nM.
To immobilize thrombin at the liposomes via click chemistry an azide-group was introduced to thrombin via NHS coupling. Therefore, 100 μL of human-thrombin at 2 mg/ml was mixed with 200 μL high salt PBS-buffer (10 mM Na2HPO4, 1.8 mM KH2PO4, 400 mM NaCl+33.5% Glycerol (v/v) at pH 7.4 and 13 μL NHS-PEG4-Azide at 10 mM. The mixture was incubated for 30 minutes at RT. The reaction was stopped by the addition of 500 μL high salt PBS-buffer (10 mM Na2HPO4, 1.8 mM KH2PO4, 400 mM NaCl+33.5% Glycerol (v/v) at pH 6.6.
1.5 μL of the thrombin-azide were mixed with 48.5 μL icecold CHES-buffer (20 mM CHES, 150 mM NaCl) at pH 8.5 and subsequently 50 μL of the liposome solution is added. This mix was stored for at least 30 minutes on ice. 10 μL of the reaction mix was diluted with 990 μL icecold CHES-buffer (20 mM CHES, 150 mM NaCl) at pH 8.5.
After curing, into each well of the microplate 10 μL of a solution containing 1 mg/ml PLL-g-PEG and 1 mg/ml PLL-g-PEG-biotin are added. The plate was incubated for at least 1 h under gentle orbital agitation. After the incubation each well was washed 10-times with HBS-buffer. The dilution ratio of every washing step was at least 1:10. […]
The single molecule microscope was based on a Nikon Ti-E base. […] Images are recorded via a [sequence] […]

Structure (SMILES): N=C(N)c1ccc(CNC(=O)[C@@H]2CCN2C(=O)[C@H](NCC(=O)O)C2CCCCC2)cc1 [melagatran]
- kobs (one hundred wells summed, melagatran 7.4 nM (FIG. 6)): 0.22 s⁻¹
- kobs (single well, melagatran 7.4 nM (FIG. 4)): could not be reliably fitted
- kobs (two wells summed, melagatran 7.4 nM (FIG. 5)): 0.43 s⁻¹
